From patent US11530222B2, “Substituted pyrrolopyrimidine and pyrazolopyrimidine as Bruton's tyrosine kinase (BTK) degraders” (ACCUTAR BIOTECHNOLOGY INC., priority 2021, dated 2022)
pIC50: −log10 of the molar value.

Columns and labels:
Type in all cases: cell-based
BTK = molecular target: T1, BTK (Homo sapiens, UniProt Q06187); assay: BTK degradative activity in a RAMOS cell line (Western blot); details: 6 hours after administration, read-out: RAMOS BTK Degradation DC50
T1 construct: BTK Degradative Activity of Exemplary Compounds of the Present Disclosure in a RAMOS Cell Line; host or cells: RAMOS
Method in brief: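 Ramos cells in RPMI with 10% FBS were treated with compound in DMSO at various concentrations for 6 h at 37 °C. BTK was measured by Western blot against GAPDH with infrared fluorescent detection and band quantification. DC50 is the concentration at which 50% of BTK is degraded.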

REC-1 cells = assay: Growth inhibitory activity in BTK-dependent REC-1 cell line (CellTiter-Glo); details: Homo sapiens, Rec1, 144 h, 6 days after administration, read-out: REC1 Cellular Grwoth Inhibition IC50
Description: (§1) REC-1 (ATCC) and REC-1 BTK^C481S cells were plated in 96-well plates at 8,000 cells/well in 90 ul of RPMI growth medium containing 10% heat-inactivated FBS and 1× Penicillin Streptomycin, and then incubated at 37° C. overnight. The following day, the test compound was administered to the cells by using 10× compound stock solution prepared in growth medium at various concentrations. After administration of the compound, cells were then incubated at 37° C. for 6 days. Before CellTiter-Glo assay, the plates were equilibrated at room temperature for approximately 10 minutes. 100 ul of CellTiter-Glo® Reagent (Promega) was added to each well. The plates were then incubated at room temperature for 10 minutes and luminescence was recorded by EnSpire plate reader (PerkinElmer).
(§2) The GI50 values (i.e., the concentration of test compound at which 50% of cell growth are inhibited) were calculated. A designation of “A” corresponds to a […] value less than 20 nM. A designation of “B” corresponds to a […] value greater than or equal to 20 nM and less than 200 nM. A designation of “C” corresponds to a […] value greater than or equal to 200 nM.

REC-1 BTK^C481S cells = assay: Growth inhibitory activity in REC-1 BTK^C481S cell line (CellTiter-Glo); details: Homo sapiens, Rec1, 144 h, 6 days after administration, read-out: REC1 BTK^C481S Cellular Grwoth Inhibition IC50
Description: The BTK gene in REC-1 cell line (ATCC) was edited by the CRISPR-Cas9 technology to create a C to S point mutation at residue 481 of BTK protein. For gene editing, first, gRNA complex was prepared with Alt-R CRISPR-Cas9 tracrRNA and crRNA BTK^C481S (5′-[…]-3′) (IDT-Integrated DNA Technologies), and then BTK^C481S ribonucleoprotein (RNP) complex was prepared with gRNA complex and Alt-R S.p. Cas9 Nuclease V3 (IDT-Integrated DNA Technologies). Next, 1×10^5 REC-1 cells were electroporated with BTK^C481S RNP complex, Alt-R Cas9 Electroporation Enhancer and BTKC481S Ultramer DNA Oligo (5′-[…] […]-3′) (IDT-Integrated DNA Technologies) using Neon Transfection System (Thermo Fisher) under the condition of 1400 V, 10 ms, 3 pulses. Cells were then plated in a 96-well plate for 10 days and selected with 10 nM Ibrutinib for 5 passages. C481S mutation of BTK was further validated by Sanger Sequencing using gDNA extracted from these cells.
as §1, §2

T1 sequence (Q06187 whole entry): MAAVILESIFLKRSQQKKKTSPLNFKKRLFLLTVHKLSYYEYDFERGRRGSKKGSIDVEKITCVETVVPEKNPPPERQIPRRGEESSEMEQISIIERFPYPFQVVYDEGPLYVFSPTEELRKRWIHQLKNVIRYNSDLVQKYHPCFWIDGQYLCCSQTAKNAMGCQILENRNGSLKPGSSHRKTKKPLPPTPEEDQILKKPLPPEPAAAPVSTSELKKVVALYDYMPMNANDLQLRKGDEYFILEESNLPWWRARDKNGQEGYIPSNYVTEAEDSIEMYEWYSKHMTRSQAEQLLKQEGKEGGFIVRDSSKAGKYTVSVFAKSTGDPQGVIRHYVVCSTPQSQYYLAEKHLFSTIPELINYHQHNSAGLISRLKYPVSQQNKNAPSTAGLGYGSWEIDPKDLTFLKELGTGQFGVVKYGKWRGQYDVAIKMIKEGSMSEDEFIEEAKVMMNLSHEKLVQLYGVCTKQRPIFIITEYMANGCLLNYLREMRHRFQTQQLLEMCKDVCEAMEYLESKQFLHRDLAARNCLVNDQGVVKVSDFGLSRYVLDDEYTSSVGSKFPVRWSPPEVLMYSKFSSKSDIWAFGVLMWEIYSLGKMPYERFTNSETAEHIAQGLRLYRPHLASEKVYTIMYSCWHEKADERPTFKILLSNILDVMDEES

| SMILES | DC50 (BTK) [µM] | pIC50 (REC-1 cells) | pIC50 (REC-1 BTK^C481S cells) |
| --- | --- | --- | --- |
| COc1ccc(F)cc1C(=O)NCc1ccc(-c2nn(-c3ccc(N4CC[C@@H](CN5CCN(c6ccc7c(c6)CN([C@H]6CCC(=O)NC6=O)C7=O)CC5)C4)c(F)c3)c3ncnc(N)c23)cc1 [Compound 96, N-(4-(4-amino-1-(4-((S)-3-((4-(2-((S)-2,6-dioxopiperidin-3-yl)-1-oxoisoindolin-5-yl)piperazin-1-yl)methyl)pyrrolidin-1-yl)-3-fluorophenyl)-1H-pyrazolo[3,4-d]pyrimidin-3-yl)benzyl)-5-fluoro-2-methoxybenzamide] | < 0.01 | > 7.70 | > 7.70 |
| COc1ccc(F)cc1C(=O)NCc1ccc(-c2nn(-c3ccc(N4CC(CN5CCN(c6ccc7c(c6)CN([C@H]6CCC(=O)NC6=O)C7=O)CC5)C4)nc3)c3ncnc(N)c23)cc1 [Compound 97, (S)—N-(4-(4-amino-1-(6-(3-((4-(2-(2,6-dioxopiperidin-3-yl)-1-oxoisoindolin-5-yl)piperazin-1-yl)methyl)azetidin-1-yl)pyridin-3-yl)-1H-pyrazolo[3,4-d]pyrimidin-3-yl)benzyl)-5-fluoro-2-methoxybenzamide] | < 0.01 | > 7.70 | > 7.70 |
